According to patent publication US12012415B2, “Compositions and methods for the diagnosis, treatment and prevention of neoplastic and neurological disorders” (AscentGene, Inc., priority 2018, dated 2024):

Experiments:
T98G cells = assay: Cell viability in TMZ-resistant T98G cells; assay type: cell-based; conditions: TMZ plus AG-1601
Experimental: Cells were treated with indicated content of AG-1601 for 48 hours, then followed by performance of cell viability assays. Efficacy of AG-1601 in rat cell (see FIGS. 24A and B), of AG-1601 in human glioma cell see FIGS. 25A and 25B), different batches of AG-1601 in C6 and U251 cells (see FIGS. 26A and 26B), of AG-1601 in C6 and U87 cells (see FIGS. 27A and 27B), of AG-1601, TMZ, and Carmustine in U251 cells (see FIGS. 28A and 28B), and of AG-1601, TMZ, and Carmustine in U87 cells (see FIGS. 29A and 29B). […] Cell viability was determined in T98G cell and U251 cell after treatment with DMSO, TMZ, AG-1601 and TMZ plus AG-1601 (FIG. 30).

[1] = tested on: dendritic spines of the CA1 pyramidal cells; assay: Golgi-Cox staining of dendritic spines, Aβ1-42 AD rat model; assay type: in vivo, rats; conditions: vs Aβ1-42 group
Experimental: Aβ1-42 (Sigma-Aldrich, St. Louis, MO, USA;) was dissolved in double-distilled water at the concentration of 5 μg/μl, and incubated at 37° C. for one week before surgery. The rats were randomly divided into four groups as Sham (n=8), Sham+AG-1601 (n=8), Aβ1-42 (n=8) and Aβ1-42+AG-1601 (n=8). The Alzheimer's disease rat models were established by intracerebroventricular (i.c.v.) injection of Aβ1-42 aggregates. The animals were anesthetized with intraperitoneal injection of pentobarbital sodium (50 mg/kg) and placed in a stereotaxic apparatus (Narishige, Japan). The head skin of the rat was opened and two small holes were drilled on both sides of skull following the coordinates: 0.8 mm posterior to bregma, +1.4 mm lateral to sagittal suture, 4.0 mm beneath the surface of brain. Aβ1-42 (2.0 μl per side) was injected bilaterally into the lateral ventricles through micro-syringe. The needle was taken out after 5 minutes of the injection to ensure the aggregates were infused completely. […]
Golgi-Cox staining method that performed according to the previously described protocol was used to determine the density of apical dendritic spines of the CA1 pyramidal cells in this study (Zhang et al., 2016). […] Six neurons in the CA1 region of hippocampus per animal were analyzed. The average dendritic spine density per 10 μm of dendritic length was calculated for each animal.

[2] = tested on: human non-small cell lung cancer cell line H841; assay: Cell growth of NSCLC cell lines; assay type: cell-based; conditions: cell growth rate from number of live cells
Experimental: (§1) Rat glioblastoma cell lines C6 (A) and human non-small cell lung cancer cell line H841 (B) were grown in the proper medium and treated with different concentration of drug candidate AG-1031 (P) and AG-1503 (#3). Cell growth rate was calculated based on the number of live cells as compared to concentration in M of selected small molecules of the invention (see FIGS. 6A and 6B).

PC4 protein = PC4 protein (Homo sapiens, UniProt P53999); assay: PC4-DNA binding interference; conditions: high-throughput screen platform
Experimental: A number of small molecules were incubated with PC4 protein and DNA binding assessed.

[3] = tested on: Rat glioblastoma cell lines C6; assay: Cell growth of glioblastoma cell line C6; assay type: cell-based; conditions: cell growth rate from number of live cells
Experimental: as §1

U87 cells = assay: Cell viability, combination with TMZ in U87 cells; assay type: cell-based, human
Experimental: Human glioma cell lines of U251, SF539, SF295 were obtained from NCI/DTP and U87 was obtained from ATCC. U251, SF539, and SF295 cells were grown in RPMI (Gibco) medium; U87 cells were grown in EMEM medium (ATCC), all the cells culture media containing 10% FBS and 100 unit/ml of Penicillin-Streptomycin, and cells were incubated in a 37 °C/5% CO2 humidified hood. One day before chemical compounds treatment, four kinds of cells U251, SF539, SF295, and U87 were seeded in 96-well plates at 10,000 cells/well (100 μl) with triplicate. The culture medium was removed and cells were treated with a series different concentration of AG1601/in correspond fresh media. Following an additional incubation of 48 hours at 37° C./5% CO2, cells proliferation assay was performed with Cell Counting Kit-8 (Dojindo Laboratories, #CK04), added 10 μl of reagent to the cells in each well after replacing with 100 μl of fresh media, mix well, following an additional 2 to 3 hours incubation at 37° C./5% CO2, read wavelengths of OD450 nm in a 96-well plate reader (Victor 2, 1420 Multilabel counter), data analysis were performed with Excel and it is platted as relative mean OD450 nm+/−standard error of the mean.
Cells were treated with indicated content of AG-1601 for 48 hours, then followed by performance of cell viability assays. […]

SMILES: C=CC1=C(C)c2cc3[nH]c(cc4nc(cc5[nH]c(cc1n2)c(C)c5C=C)C(C)=C4CCC(=O)O)c(CCC(=O)NCCCc1ccccc1)c3C [AG-1601, 3-(2,8,13,18-tetramethyl-3-(3-oxo-3-((3-phenylpropyl)amino)propyl)-12,17-divinylporphyrin-7-yl)propanoic acid]
- effect on TMZ-resistance (T98G cells): Overcomes the Effect of TMZ-resistance
- density of dendritic spines in the CA1 region [1]: marked reversal of the dendritic spine loss
- inhibition of growth of NSCLC cell lines [2]: inhibiting growth of some NSCLC cell lines
- PC4 inhibition (PC4 protein): strong PC4 inhibitor
- inhibition of growth of glioma cell line C6 [3]: even better inhibitory activity on growth of glioma cells compared to AG-1503
- potentiation of the effect of TMZ (U87 cells): potentiates the effect of TMZ
